Test results reported in US6960614B2, “Oxygenated esters of 4-lodo phenylamino benzhydroxamic acids” (Warner-Lambert Company, priority 2000, dated 2005).

Key:
MEK = experiment: Cellular Assay for Measuring MEK Inhibition (inhibition of ERK phosphorylation in C26 cells, Western blot); assay type: cell-based, murine; conditions: inhibition of ERK phosphorylation in murine colon 26 (C26) carcinoma cells; determined graphically from dose response curve
In short: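 Read-out is phospho-ERK1/2 by Western blot, normalized against total ERK1/2 after stripping and re-probing. Murine C26 colon carcinoma cells in exponential growth were exposed to a range of compound concentrations at 37° C before lysis.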

[1] = test system: carrageenan thermal hyperalgesia response; experiment: Thermal hyperalgesia from intraplantar carrageenan in rats (Paw Withdrawal Latency); assay type: in vivo; conditions: rat; for % Inhibition (1 hr): DOSE (PO) 10, 1 hour after drug administration; for % Inhibition (2 hr): DOSE (PO) 10, 2 hours after drug administration; for % Inhibition (3 hr): DOSE (PO) 10, 3 hours after drug administration
Protocol: The analgesic activity of the compounds of the present invention was assessed by a test with rats. […] The rats were placed on a glass plate with illumination from a halogen lamp placed directly under the injected paw. The time (in seconds) from beginning illumination until the hindlimb was withdrawn from the glass was measured and scored as Paw Withdrawal Latency (PWL). Drug substances were given by oral gavage injection 21⁄2 hours after carrageenan injection to the footpad. PWL was measured prior to carrageenan injection, just prior to drug injection, and 1, 2 (and sometimes 3) hours after drug injection. Carrageenan (a polysaccharide extracted from seaweed) causes a sterile inflammation when injected under the skin. Injection into the rat footpad causes little or no spontaneous pain-related behavior but induces hyperalgesia (pain-related behavioral responses of greater intensity than expected) to peripheral thermal or mechanical stimuli. This hyperalgesia is maximal 2 to 3 hours after injection. Treatment of rats with various analgesic drugs reduces hyperalgesia measured in this way and is a conventional test for detection of analgesic activity in rats. […] Inhibition of the carrageenan thermal hyperalgesia response was determined by the difference between reduced PWL prior to drug and subsequent to drug treatment, and was expressed as percent inhibition of the response. […] Inhibition indicates and analgesic effect.

| Compound | IC50 (MEK) [nM] | melting point | % Inhibition (1 hr) [1] [%] | % Inhibition (2 hr) [1] [%] | % Inhibition (3 hr) [1] [%] |
| --- | --- | --- | --- | --- | --- |
| O=C(NOCC(O)CO)c1cc(Cl)c(F)c(F)c1Nc1ccc(I)cc1Cl (stereo not drawn) [Example 34] | 1 | 152 to 154 °C | 39.6 | 61.5 |  |
| O=C(NOCC(O)CO)c1cc(Cl)c(F)c(F)c1Nc1ccc(I)cc1F (stereo not drawn) [Example 41, 5-Chloro-N-(2,3-dihydroxy-propoxy)-3,4-difluoro-2-(2-fluoro-4-iodo-phenylamino)-benzamide] | 0.73 | 152 to 155 °C | 26.7 | 61.0 |  |
| O=C(NOC[C@@H](O)CO)c1cc(Cl)c(F)c(F)c1Nc1ccc(I)cc1F [Example 54] | 1.2 | 157 to 158 °C | 49 | 52.9 | 29.6 |
| O=C(NOC[C@H](O)CO)c1ccc(F)c(F)c1Nc1ccc(Br)cc1F [Example 55, 2-(4-Bromo-2-fluoro-phenylamino)-N-((R)-2,3-dihydroxy-propoxy)-3,4-difluoro-benzamide] | 4.5 | 52 °C | 36.8 | 60 | 22 |
| C=COCCONC(=O)c1ccc(F)cc1Nc1ccc(I)cc1F [Example 58, 4-Fluoro-2-(2-fluoro-4-iodo-phenylamino)-N-(2-vinyloxy-ethoxy)-benzamide] | 60 | 103.5 to 104 °C |  |  |  |
| Cc1cc(I)ccc1Nc1c(C(=O)NOC(C)(C)CO)ccc(F)c1F [Example 63, 3,4-Difluoro-N-(2-hydroxy-1,1-dimethyl-ethoxy)-2-(4-iodo-2-methyl-phenylamino)-benzamide] | 47 | 175 to 176 °C |  |  |  |
| CC(C)(O)CONC(=O)c1ccc(F)c(F)c1Nc1ccc(I)cc1Cl [Example 64, 2-(2-Chloro-4-iodo-phenylamino)-3,4-difluoro-N-(2-hydroxy-2-methyl-propoxy)-benzamide] | 13 | 140 to 153 °C |  |  |  |
| CC(C)(CO)ONC(=O)c1cc(Cl)c(F)c(F)c1Nc1ccc(I)cc1F [Example 66, 5-Chloro-3,4-difluoro-2-(2-fluoro-4-iodo-phenylamino)-N-(2-hydroxy-1,1-dimethyl-ethoxy)-benzamide] | 2 | 178 to 180 °C |  |  |  |
| CC(C)(O)CONC(=O)c1ccc(F)c(F)c1Nc1ccc(I)cc1F [Example 67, 3,4-Difluoro-2-(2-fluoro-4-iodo-phenylamino)-N-(2-hydroxy-2-methyl-propoxy)-benzamide] | 6 | 156.7 to 156.9 °C |  |  |  |
| COCC(O)CONC(=O)c1ccc(F)c(F)c1Nc1ccc(I)cc1C (stereo not drawn) [Example 68] | 24 | 136.2 to 136.5 °C |  |  |  |
| COCC(O)CONC(=O)c1cc(Br)c(F)c(F)c1Nc1ccc(I)cc1Cl (stereo not drawn) [Example 69, 5-Bromo-2-(2-chloro-4-iodo-phenylamino)-3,4-difluoro-N-(2-hydroxy-3-methoxy-propoxy)-benzamide] | 60 | 139.5 to 140.1 °C |  |  |  |
| Cc1cc(I)ccc1Nc1c(C(=O)NOCC(O)C(F)(F)F)ccc(F)c1F (stereo not drawn) [Example 72, 3,4-Difluoro-2-(4-iodo-2-methyl-phenylamino)-N-(3,3,3-trifluoro-2-hydroxy-propoxy)-benzamide] | 19 | 175.2 to 175.5 °C |  |  |  |
| O=C(NOCC(O)C(F)(F)F)c1cc(Br)c(F)c(F)c1Nc1ccc(I)cc1Cl (stereo not drawn) [Example 73, 5-Bromo-2-(2-chloro-4-iodo-phenylamino)-3,4-difluoro-N-(3,3,3-trifluoro-2-hydroxy-propoxy)-benzamide] | 80 | 186.9 to 187.3 °C |  |  |  |
| CC(C)(O)C(O)CONC(=O)c1ccc(F)c(F)c1Nc1ccc(I)cc1F (stereo not drawn) [Example 76, N-(2,3-Dihydroxy-3-methyl-butoxy)-3,4-difluoro-2-(2-fluoro-4-iodo-phenylamino)-benzamide] | 6 | 180 to 183 °C |  |  |  |
| O=C(NOCC(O)CO)c1ccc(F)c(F)c1Nc1ccccc1F (stereo not drawn) [Example 85, N-(2,3-Dihydroxy-propoxy)-3,4-difluoro-2-(2-fluoro-phenylamino)-benzamide] | 54 | 113 to 115 °C |  |  |  |

The remaining compounds from weak to strong by IC50 (MEK), led by results:

| IC50 (MEK) [nM] | melting point | Compound | % Inhibition (1 hr) [1] [%] | % Inhibition (2 hr) [1] [%] | % Inhibition (3 hr) [1] [%] |
| --- | --- | --- | --- | --- | --- |
| 230 | 183 to 185 °C (dec.) | CNCCONC(=O)c1ccc(F)c(F)c1Nc1ccc(I)cc1C [Example 78, 3,4-Difluoro-2-(4-iodo-2-methyl-phenylamino)-N-(2-methylamino-ethoxy)-benzamide] |  |  |  |
| 200 | 165.4 to 165.6 °C | Cc1cc(I)ccc1Nc1c(C(=O)NOCC2(CO)CC2)ccc(F)c1F [Example 70, 3,4-Difluoro-N-(1-hydroxymethyl-cyclopropylmethoxy)-2-(4-iodo-2-methyl-phenylamino)-benzamide] |  |  |  |
| 150 | 128 to 130 °C | C=COCCONC(=O)c1cc(Br)c(F)c(F)c1Nc1ccc(I)cc1F [Example 61, 5-Bromo-3,4-difluoro-2-(2-fluoro-4-iodo-phenylamino)-N-(2-vinyloxy-ethoxy)-benzamide] |  |  |  |
| 120 | 152.6 to 153.9 °C | O=C(NOCC1(CO)CC1)c1cc(Br)c(F)c(F)c1Nc1ccc(I)cc1Cl [Example 71, 5-Bromo-2-(2-chloro-4-iodo-phenylamino)-3,4-difluoro-N-(1-hydroxymethyl-cyclopropylmethoxy)-benzamide] |  |  |  |
| 41 | 122 to 124 °C | O=C(c1ccc(F)c(F)c1Nc1ccc(I)cc1F)N1CC(O)CO1 (stereo not drawn) [Example 83, [3,4-Difluoro-2-(2-fluoro-4-iodo-phenylamino)-phenyl]-(4-hydroxy-isoxazolidin-2-yl)-methanone] |  |  |  |
| 18 | 179 to 181 °C | CC(C)(CO)ONC(=O)c1cc(Br)c(F)c(F)c1Nc1ccc(I)cc1Cl [Example 62, 5-Bromo-2-(2-chloro-4-iodo-phenylamino)-3,4-difluoro-N-(2-hydroxy-1,1-dimethyl-ethoxy)-benzamide] |  |  |  |
| 14 | 182 to 183 °C | CC(C)(CO)ONC(=O)c1ccc(F)c(F)c1Nc1ccc(I)cc1F [Example 65, 3,4-Difluoro-2-(2-fluoro-4-iodo-phenylamino)-N-(2-hydroxy-1,1-dimethyl-ethoxy)-benzamide] |  |  |  |
